Experimental data taken from patent US20240207249A1, “COMPOSITIONS AND METHODS FOR TREATING, PREVENTING OR REVERSING AGE-ASSOCIATED INFLAMMATION AND DISORDER” (Brown University, priority 2019, published 2024).
“Also recorded” adds a separate entry of the source. Where two headings read alike, the source gives them in different places.

How the values were obtained:
[1] = target: human L1 EN domain (1-239) (Homo sapiens (Human), UniProt O00370); test: plasmid nicking L1 EN activity biochemical assay
APE-1 = APE-1 (Homo sapiens (Human), UniProt P27695); settings: cited from earlier work
L1 EN = L1 EN (Homo sapiens (Human), UniProt O00370); test: fluorescent oligonucleotide nicking assay; type: biochemical
L1 retrotransposition = L1 retrotransposition dual-luciferase reporter cellular assay in HeLa-M2 cells; type: cell-based, human; settings: for Cellular assay: retrotransposition efficiency (mean ± SD): Table 2
[2] = system: full-length L1 (ORF1 and ORF2) in HeLa Tet-On cells; test: L1-induced DNA damage, γ-H2AX immunofluorescence, full-length L1 expression; type: cell-based, human
[3] = system: senescent human diploid fibroblasts (LF1); test: RT-qPCR of inflammatory markers in replicative senescent cells; type: cell-based
[4] = solubility remark in cellular assay column; settings: reason for no cellular data
[5] = system: L1 EN domain in HeLa Tet-On cells; test: L1-induced DNA damage, γ-H2AX immunofluorescence and neutral comet assay, EN domain-only expression; type: cell-based, human
[6] = system: senescent human diploid fibroblasts (LF1); test: RNA-seq transcriptomic analysis of senescent cells; type: cell-based; settings: IFN gene set and aging gene set
HeLa cells = settings: human
[7] = in vitro assays with purified EN

Chain of L1 EN (O00370 1-239): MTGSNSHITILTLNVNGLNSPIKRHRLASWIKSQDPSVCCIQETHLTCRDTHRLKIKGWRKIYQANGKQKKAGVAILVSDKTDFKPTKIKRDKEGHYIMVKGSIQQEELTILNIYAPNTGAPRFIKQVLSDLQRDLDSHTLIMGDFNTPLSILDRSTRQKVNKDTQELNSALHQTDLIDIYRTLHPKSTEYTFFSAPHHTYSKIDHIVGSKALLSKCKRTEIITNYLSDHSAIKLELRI
Chain of human L1 EN domain (1-239) (O00370 1-239): as above
Chain of APE-1 (P27695 whole entry): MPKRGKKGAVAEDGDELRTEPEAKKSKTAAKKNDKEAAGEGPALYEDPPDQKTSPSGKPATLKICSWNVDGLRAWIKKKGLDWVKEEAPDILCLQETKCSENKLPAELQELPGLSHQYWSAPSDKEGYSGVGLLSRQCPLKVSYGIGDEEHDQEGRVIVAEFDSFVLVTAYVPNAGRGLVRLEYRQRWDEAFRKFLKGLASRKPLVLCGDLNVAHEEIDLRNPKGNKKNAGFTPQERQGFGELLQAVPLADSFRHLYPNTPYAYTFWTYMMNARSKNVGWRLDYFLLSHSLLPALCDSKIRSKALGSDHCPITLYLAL

| SMILES | L1 EN inhibition in the biochemical assay (in words) [1] | Biochemical assay: maximum inhibition ([1]; plasmid nicking assay) | Biochemical assay: concentration at maximum inhibition ([1]; plasmid nicking assay) | Biochemical assay: concentration at maximum inhibition [1] | Biochemical assay: maximum inhibition [1] | effect on retrotransposition in the cellular reporter assay (in words) (L1 retrotransposition) | also measured |
| --- | --- | --- | --- | --- | --- | --- | --- |
| O=C(O)[C@H](CCCCNc1ccc([N+](=O)[O-])cc1[N+](=O)[O-])Nc1ccc([N+](=O)[O-])cc1[N+](=O)[O-] [AD2] | effective against the L1 EN |  |  | 1 mM FIG. 2B | 100% inhibition at | did not significantly impact retrotransposition in cells | Ki (APE-1): 13 µM; in vitro activity against EN (in words) (L1 EN): clear activity in vitro |
| C/C(C[C@H](c1ccccc1)c1c(O)c2ccccc2oc1=O)=N\Nc1ccc([N+](=O)[O-])cc1[N+](=O)[O-] [AD3] |  |  |  | 250 μM FIG. 2C | 100% inhibition at | best inhibition in the retrotransposition assay | inhibition of L1-induced DNA damage (in words) [2]: best inhibition; effect on inflammatory markers in senescent cells (in words) [3]: show efficacy |
| O=[N+]([O-])c1ccc(Nc2ccc(Nc3ccccc3)c(S(=O)(=O)O)c2)c([N+](=O)[O-])c1 [AD4] |  |  |  | 1 mM FIG. 2D | 100% inhibition at |  |  |
| Cc1cc(=O)oc2c3c(ccc12)O/C(=N/Nc1ccc([N+](=O)[O-])cc1[N+](=O)[O-])C3=O [AD5] |  |  |  | 50 μM FIG. 2E | 100% inhibition | did not significantly impact retrotransposition in cells | solubility (in words) [4]: (poor solubility); in vitro activity against EN (in words) (L1 EN): clear activity in vitro |
| C/C(=N/Nc1ccc([N+](=O)[O-])cc1[N+](=O)[O-])c1ccc(-n2nncc2C(C)(C)C)cc1 [AD7] |  |  |  | 500 μM FIG. 2F | 80% inhibition at | high activity in the retrotransposition assay | in vitro activity against EN (in words) (L1 EN): relatively low efficacy in vitro |
| C[C@@H](Nc1ccc([N+](=O)[O-])cc1[N+](=O)[O-])C(=O)O [AD8] |  |  |  | 15 mM FIG. 2G | 100% inhibition at |  |  |
| O=C(CCCCCCCCCCC(=O)Nc1cccc([N+](=O)[O-])c1)Nc1cccc([N+](=O)[O-])c1 [AD11] |  |  |  | 10.0 μM FIG. 2J | 100% inhibition at |  | inhibition of L1-induced DNA damage (in words) [5]: better efficacy |
| COc1ccc2c(c1)C(=O)N(CCc1ccc(S(=O)(=O)NC(=O)NC3CCCCC3)cc1)C(=O)C2(C)C [AD12, Gliquidone, reference compound] |  |  |  |  |  | reduced retrotransposition in the cellular reporter assay; also recorded: high activity in the retrotransposition assay; also recorded: best inhibition in the retrotransposition assay | gene set expression by RNA-seq (in words) [6]: decreased expression; inhibition of L1-induced DNA damage (in words) [2]: best inhibition; effect on inflammatory markers in senescent cells (in words) ([3]; 1 month treatment): show efficacy |
| O=C1c2ccc(Oc3ccc4c(c3)C(=O)N(Nc3ccc([N+](=O)[O-])cc3[N+](=O)[O-])C4=O)cc2C(=O)N1Nc1ccc([N+](=O)[O-])cc1[N+](=O)[O-] [AD13] | effective in the biochemical assay |  |  | 500 μM FIG. 2L | 100% inhibition at |  |  |
| CCC1=C(C)CN(C(=O)NCCc2ccc(S(=O)(=O)NC(=O)N[C@H]3CC[C@H](C)CC3)cc2)C1=O [AD15, Glimepiride, reference compound] | inhibited L1 EN activity in the biochemical assay | 100% inhibition at | 2.5 mM FIG. 2N |  |  | reduced retrotransposition in the cellular reporter assay | Cellular assay: retrotransposition efficiency (mean ± SD) (L1 retrotransposition; 50 μM): 50 μM: 17.1 |
| Cc1ccc(NC(=O)CSc2nc(-c3ccccc3F)nc3c2Cc2c(CO)cnc(C)c2O3)cc1 [AD28] |  |  |  |  |  |  | Toxicity at concentration (HeLa cells): Toxicity at 2.5 μM |
| O=C(NCCCCCCNC(=O)Nc1cccc([N+](=O)[O-])c1)Nc1cccc([N+](=O)[O-])c1 [AD32] |  |  |  |  |  | high activity in the retrotransposition assay | in vitro activity against EN (in words) (L1 EN): relatively low efficacy in vitro |
| COc1ccc([N+](=O)[O-])cc1NC(=O)c1ccc2c(c1)N(Cc1cc(C)ccc1C)C(=O)c1ccccc1S2(=O)=O [AD34] |  |  |  |  |  | did not significantly impact retrotransposition in cells | in vitro activity against EN (in words) (L1 EN; [7]): clear activity in vitro |
| COc1ccc(OC)c(NS(=O)(=O)c2ccc(NS(=O)(=O)c3cccc([N+](=O)[O-])c3)cc2)c1 [AD36] |  |  |  |  |  | high activity in the retrotransposition assay | in vitro activity against EN (in words) (L1 EN; [7]): relatively low efficacy in vitro |
| O=C(Cn1nc(-c2ccc(Br)cc2)ccc1=O)NC[C@H]1CC[C@H](C(=O)O)CC1 [AD43] |  |  |  |  |  | high activity in the retrotransposition assay | in vitro activity against EN (in words) (L1 EN; [7]): relatively low efficacy in vitro |

Now from value to compound, other results behind:

| L1 EN inhibition in the biochemical assay (in words) [1] | Biochemical assay: maximum inhibition ([1]; plasmid nicking assay) | Biochemical assay: concentration at maximum inhibition ([1]; plasmid nicking assay) | SMILES | Biochemical assay: concentration at maximum inhibition [1] | Biochemical assay: maximum inhibition [1] | effect on retrotransposition in the cellular reporter assay (in words) (L1 retrotransposition) | also measured |
| --- | --- | --- | --- | --- | --- | --- | --- |
| did not inhibit the L1 EN | No inhibition |  | CCn1c2ccccc2c2cc(/C=N\Nc3cc(C)nc4cc5c(cc34)OCO5)ccc21 [AD1, reference compound] |  |  |  | Ki (APE-1): 0.12 µM |
|  | 90% inhibition at | 750 μM FIG. 2F | Cc1cc([N+](=O)[O-])ccc1NC(=S)NC(=O)C(c1ccccc1)c1ccccc1 [AD6] |  |  |  | Cellular assay: retrotransposition efficiency (mean ± SD) (L1 retrotransposition; 10 μM): 10 μM: 79.1 |
|  | 80% inhibition at | 750 μM FIG. 2H | C[C@H]1C[C@H](C)CN(CCCNc2ccc(C(=O)Nc3ccc(C(F)(F)F)cc3)cc2[N+](=O)[O-])C1 [AD9] |  |  | high activity in the retrotransposition assay | in vitro activity against EN (in words) (L1 EN; [7]): relatively low efficacy in vitro |
|  | 100% inhibition at | 100 μM FIG. 21 | O=C(NC(NC(=O)c1ccccc1)c1cccc([N+](=O)[O-])c1)c1ccccc1 [AD10] |  |  |  | Cellular assay: retrotransposition efficiency (mean ± SD) (L1 retrotransposition; 50 μM): 50 μM: 68.9 |
| effective in the biochemical assay | 50% inhibition at | 500 μM FIG. 20 | Nn1cnn2c(SCC(=O)Cc3ccc(-c4nc5cc(NC(=O)CSc6nnc7n(N)cnn67)ccc5o4)cc3)nnc12 [AD16] |  |  |  | inhibition of L1-induced DNA damage (in words) ([5]; EN domain-only): better efficacy |
| effective in the biochemical assay | 50% inhibition at | 750 μM FIG. 2Q | O=C(Nc1ccc(S(=O)(=O)NCc2ccco2)cc1)c1cc(NS(=O)(=O)c2cccs2)cc(NS(=O)(=O)c2cccs2)c1 [AD18] |  |  | did not significantly impact retrotransposition in cells | in vitro activity against EN (in words) (L1 EN; [7]): clear activity in vitro |
| effective in the biochemical assay | 75% inhibition at | 250 μM FIG. 2R | COc1ccccc1NC(=O)Nc1nc(Nc2ccc(S(=O)(=O)Nc3nc(C)cc(C)n3)cc2)nc(Oc2cccc(O)c2)n1 [AD19] |  |  |  |  |
